Laboratory results as given in the supplement of paper PMC10307832.

How the values were obtained:
Assay in all cases: relative viability (nuclei count vs DMSO), 5 days (fraction); higher = more cells survive
Daporinad + Crizotinib = compound: O=C(/C=C/c1cccnc1)NCCCCC1CCN(C(=O)c2ccccc2)CC1 [Daporinad] + C[C@@H](Oc1cc(-c2cnn(C3CCNCC3)c2)cnc1N)c1c(Cl)ccc(F)c1Cl [Crizotinib] (partner 1 µM)
Method in brief: (§1)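 After 5 days of treatment, lung cancer cells in 1536-well plates were fixed and stained in a single step (final 0.05% Triton X-100, 1% formaldehyde, 1 ug/ml Hoechst) and their nuclei counted on 4× images. Treatment had been applied by pin tool the day after seeding as one drug alone or as a fixed anchor-drug dose with five library-drug doses (not always all listed) in √10 steps. Relative viability is the nuclei count of treated wells divided by that of vehicle wells, and values are medians of duplicate plates.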

R406 + Dasatinib = compound: COc1cc(Nc2ncc(F)c(Nc3ccc4c(n3)NC(=O)C(C)(C)O4)n2)cc(OC)c1OC [R406] + Cc1nc(Nc2ncc(C(=O)Nc3c(C)cccc3Cl)s2)cc(N2CCN(CCO)CC2)n1 [Dasatinib] (partner 0.075 µM)
Method in brief: as §1

Daporinad + Olaparib = compound: O=C(/C=C/c1cccnc1)NCCCCC1CCN(C(=O)c2ccccc2)CC1 [Daporinad] + O=C(c1cc(Cc2n[nH]c(=O)c3ccccc23)ccc1F)N1CCN(C(=O)C2CC2)CC1 [Olaparib] (partner 8 µM)
Method in brief: as §1

R406 + Lapatinib = compound: COc1cc(Nc2ncc(F)c(Nc3ccc4c(n3)NC(=O)C(C)(C)O4)n2)cc(OC)c1OC [R406] + CS(=O)(=O)CCNCc1ccc(-c2ccc3ncnc(Nc4ccc(OCc5cccc(F)c5)c(Cl)c4)c3c2)o1 [Lapatinib] (partner 2 µM)
Method in brief: as §1

Cell Line	relative viability (Daporinad + Crizotinib; first compound 0.0005 µM)	relative viability (Daporinad + Crizotinib; first compound 0.001581 µM)	relative viability (Daporinad + Crizotinib; first compound 0.005 µM)	relative viability (Daporinad + Crizotinib; first compound 0.01581 µM)	relative viability (R406 + Dasatinib; first compound 0.08 µM)	relative viability (R406 + Dasatinib; first compound 0.253 µM)	relative viability (R406 + Dasatinib; first compound 0.8 µM)	relative viability (R406 + Dasatinib; first compound 2.53 µM)	relative viability (R406 + Dasatinib; first compound 8 µM)	relative viability (Daporinad + Olaparib; first compound 0.0005 µM)	relative viability (Daporinad + Olaparib; first compound 0.001581 µM)	relative viability (Daporinad + Olaparib; first compound 0.005 µM)	relative viability (Daporinad + Olaparib; first compound 0.01581 µM)	relative viability (R406 + Lapatinib; first compound 0.08 µM)	relative viability (R406 + Lapatinib; first compound 0.253 µM)	relative viability (R406 + Lapatinib; first compound 0.8 µM)	relative viability (R406 + Lapatinib; first compound 2.53 µM)	relative viability (R406 + Lapatinib; first compound 8 µM)
EKVX	0.891	1.01	1.01	0.993	0.626	0.32	0.511	0.402	0.367	0.861	0.912	0.788	0.615	0.247	0.239	0.18	0.104	0.176
HOP-62	–	1.05	0.994	0.789	0.618	0.73	0.797	0.729	0.391	0.258	0.287	0.188	0.15	0.918	0.949	1.08	1.06	1.12
NCI-H2126	1.06	1.03	1.09	1.01	0.6	0.619	0.596	0.496	0.243	0.945	0.953	0.883	0.863	0.763	0.798	0.801	0.772	0.737
NCI-H1944	1.16	1.13	1.24	1.18	0.22	0.207	0.209	0.164	0.153	0.407	0.393	0.42	0.386	0.756	0.862	0.855	0.559	0.614
EPLC-272H	0.884	1.03	1.01	1.11	0.319	0.39	0.321	0.128	0.102	0.72	0.704	0.581	0.442	0.888	0.924	1.1	0.442	0.228
RERF-LC-KJ	0.787	0.861	1.06	0.803	0.782	0.878	0.939	0.678	0.503	0.867	0.896	0.82	0.757	0.682	0.876	1.01	0.761	0.794
NCI-H661	0.975	0.998	1.04	0.52	0.847	0.824	1.1	0.684	0.402	0.687	0.616	0.665	0.402	0.435	0.48	0.413	0.362	0.277
PC-14	0.911	0.876	0.913	0.651	0.271	0.241	0.283	0.105	0.0312	0.242	0.194	0.168	0.087	0.302	0.442	0.382	0.3	0.294
COR-L 105	0.763	0.722	0.723	0.798	0.332	0.387	0.354	0.317	0.204	0.637	0.66	0.61	0.591	0.359	0.391	0.364	0.276	0.292
